Measurements: patent publication US9930890B2 (priority 2010, dated 2018)

Experiments:
[1] = test system: Plasmopara viticola; assay: Plasmopara test (grapevine)/protective; format: in vivo; settings: grapevine young plants, protective spray, active ingredient concentration 10 ppm, evaluation 6 days after inoculation; 0% = control, 100% = no infection
Experimental: Plasmopara Test (Grapevine)/Protective
To produce an appropriate active ingredient formulation, 1 part by weight of active ingredient is mixed with the specified amounts of solvent and emulsifier, and the concentrate is diluted with water to the desired concentration.
To test for protective efficacy, young plants are sprayed with the active ingredient formulation at the stated application rate. After the spray coating has dried on, the plants are inoculated with an aqueous spore suspension of Plasmopara viticola and then remain in an incubation cabin at approx. 20° C. and 100% relative air humidity for 1 day. Subsequently, the plants are placed in a greenhouse at approx. 21° C. and approx. 90% air humidity for 4 days. The plants are then moistened and placed in an incubation cabin for 1 day.
Evaluation follows 6 days after the inoculation. 0% means an efficacy which corresponds to that of the control, whereas an efficacy of 100% means that no infection is observed.
In this test, the following inventive compounds show, at an active ingredient concentration of 10 ppm, an efficacy of 70% or more: […]

[2] = for logp [a]: pH 2.7; for logp [b]: pH 7.8
[3] = test system: Phytophthora infestans; format: in vivo; settings: tomato plants, protective spray, active ingredient concentration 100 ppm, evaluation 7 days after inoculation; 0% = control, 100% = no infection

For CON=C(C)c1cccc(C2CC(c3csc(C4CCN(C(=O)Cn5nc(C(F)(F)F)cc5C)CC4)n3)=NO2)c1 (mixture of isomers) [I-3], the Eff. % [1] was 97%, the “logp [a]” value [2] was 3.7[a] and the Eff. % [3] was 100%.
For CCON=C(C)c1cccc(C2CC(c3csc(C4CCN(C(=O)Cn5nc(C(F)F)cc5C(F)F)CC4)n3)=NO2)c1 (mixture of isomers) [I-5], the Eff. % [1] was 87% and the Eff. % [3] was 100%.
With CC(=NO)c1cccc(C2CC(c3csc(C4CCN(C(=O)Cn5nc(C(F)(F)F)cc5C)CC4)n3)=NO2)c1 (mixture of isomers) [I-7] the Eff. % [1] was 100%, the “logp [a]” value [2] was 2.8[a] and the Eff. % [3] was 100%.
Cc1cc(C(F)(F)F)nn1CC(=O)N1CCC(c2nc(C3=NOC(c4cccc(C=NO)c4)C3)cs2)CC1 (mixture of isomers) [I-10] gave an Eff. % [1] of 92% and an Eff. % [3] of 100%.
With Cc1ccc(Cl)cc1NC(=O)N1CCC(c2nc(C3=NOC(c4cccc(C=NO)c4)C3)cs2)CC1 (mixture of isomers) [I-14] the Eff. % [1] was 100% and the Eff. % [3] was 100%.
With CON=Cc1cccc(C2CC(c3csc(C4CCN(C(=O)Cn5nc(C(F)(F)F)cc5C)CC4)n3)=NO2)c1 (mixture of isomers) [I-15] the Eff. % [1] was 81% and the Eff. % [3] was 100%.
In the case of CON=Cc1cccc(C2CC(c3csc(C4CCN(C(=O)Cn5nc(C(F)F)cc5C(F)F)CC4)n3)=NO2)c1 (mixture of isomers) [I-16], the Eff. % [1] is reported as 94%.
For CC(=NO)c1cccc(C2CC(c3csc(C4CCN(C(=O)Cn5nc(C(F)F)cc5C(F)F)CC4)n3)=NO2)c1 (mixture of isomers) [I-18], the Eff. % [1] was 100% and the Eff. % [3] was 100%.
Molecule CON=Cc1cccc(C2CC(c3csc(C4CCN(C(=O)Nc5cc(Cl)ccc5C)CC4)n3)=NO2)c1 (mixture of isomers) [I-19] has an Eff. % [1] of 100% and an Eff. % [3] of 100%.
Molecule CON=C(C)c1cccc(C2CC(c3csc(C4CCN(C(=O)Cn5nc(C(F)F)cc5C(F)F)CC4)n3)=NO2)c1 (mixture of isomers) [I-21] has an Eff. % [1] of 100% and an Eff. % [3] of 100%.
In the case of O=C(Cn1nc(C(F)F)cc1C(F)F)N1CCC(c2nc(C3=NOC(c4cccc(C=NO)c4)C3)cs2)CC1 (mixture of isomers) [I-22], the Eff. % [1] is reported as 100% and the Eff. % [3] is reported as 100%.
Molecule CON=C(C)c1cccc(C2CC(c3csc(C4CCN(C(=O)Nc5cc(Cl)ccc5C)CC4)n3)=NO2)c1 (mixture of isomers) [I-23] has an Eff. % [1] of 98% and an Eff. % [3] of 100%.
Work on CCON=Cc1ccccc1C1CC(c2csc(C3CCN(C(=O)Cn4nc(C(F)F)cc4C(F)F)CC3)n2)=NO1 (mixture of isomers) [I-27] yielded an Eff. % [1] of 99% and an Eff. % [3] of 100%.
With CCON=Cc1ccccc1C1CC(c2csc(C3CCN(C(=O)Cn4nc(C(F)(F)F)cc4C)CC3)n2)=NO1 (mixture of isomers) [I-29] the Eff. % [1] was 90%, the “logp [a]” value [2] was 4[a] and the Eff. % [3] was 100%.
With CON=C(C)c1ccccc1C1CC(c2csc(C3CCN(C(=O)Cn4nc(C(F)(F)F)cc4C)CC3)n2)=NO1 (mixture of isomers) [I-31] the Eff. % [1] was 97% and the Eff. % [3] was 100%.
In the case of CON=C(C)c1ccccc1C1CC(c2csc(C3CCN(C(=O)Cn4nc(C(F)F)cc4C(F)F)CC3)n2)=NO1 (mixture of isomers) [I-32], the Eff. % [1] is reported as 85% and the Eff. % [3] is reported as 100%.
In the case of CON=Cc1ccccc1C1CC(c2csc(C3CCN(C(=O)Cn4nc(C(F)(F)F)cc4C)CC3)n2)=NO1 (mixture of isomers) [I-34], the Eff. % [1] is reported as 87%, the “logp [a]” value [2] is reported as 3.7[a] and the Eff. % [3] is reported as 100%.
For O=C(Cn1nc(C(F)F)cc1C(F)F)N1CCC(c2nc(C3=NOC(c4ccccc4C=NO)C3)cs2)CC1 (mixture of isomers) [I-35], the Eff. % [1] was 100% and the Eff. % [3] was 95%.
Molecule Cc1ccc(Cl)cc1NC(=O)N1CCC(c2nc(C3=NOC(c4ccccc4C=NO)C3)cs2)CC1 (mixture of isomers) [I-36] has an Eff. % [1] of 100% and an Eff. % [3] of 100%.
With CON=Cc1cccc(F)c1C1CC(c2csc(C3CCN(C(=O)Cn4nc(C(F)(F)F)cc4C)CC3)n2)=NO1 (mixture of isomers) [I-118] the Eff. % [1] was 100%, the “logp [a]” value [2] was 3.61[a], and the “logp [b]” value [2] was 3.49[b]. For the same molecule, the Eff. % [3] was 95%.
In the case of CC(=O)Nc1ccc(C2CC(c3csc(C4CCN(C(=O)Cn5nc(C(F)F)cc5C(F)F)CC4)n3)=NO2)cc1 (racemic) [I-25], the Eff. % [1] is reported as 97% and the “logp [a]” value [2] is reported as 2.2[a],.
With C#CCOCc1ccccc1C1CC(c2csc(C3CCN(C(=O)Cn4nc(C(F)(F)F)cc4C)CC3)n2)=NO1 (racemic) [I-46] the Eff. % [1] was 94%, the “logp [a]” value [2] was 3.43[a] and the Eff. % [3] was 94%.
For CC(=O)OCc1ccccc1C1CC(c2csc(C3CCN(C(=O)Cn4nc(C(F)(F)F)cc4C)CC3)n2)=NO1 (racemic) [I-47], the Eff. % [1] was 90%, the “logp [a]” value [2] was 3.31[a] and the Eff. % [3] was 94%.
For C#CCOCc1ccccc1C1CC(c2csc(C3CCN(C(=O)Cn4nc(C(F)F)cc4C(F)F)CC3)n2)=NO1 (racemic) [I-53], the Eff. % [1] was 96%, the “logp [a]” value [2] was 3.31[a] and the Eff. % [3] was 94%.
For Cc1ccc(Cl)cc1NC(=O)N1CCC(c2nc(C3=NOC(c4c(Cl)cccc4OS(C)(=O)=O)C3)cs2)CC1 (racemic) [I-54], the Eff. % [1] was 100%, the “logp [a]” value [2] was 3.54[a], and the “logp [b]” value [2] was 3.43[b]. It also gave an Eff. % [3] of 94%.
For CC(=O)OCc1ccccc1C1CC(c2csc(C3CCN(C(=O)Cn4nc(C(F)F)cc4C(F)F)CC3)n2)=NO1 (racemic) [I-55], the Eff. % [1] was 92%, the “logp [a]” value [2] was 3.22[a] and the Eff. % [3] was 94%.
In the case of COCCS(=O)(=O)Cc1ccccc1C1CC(c2csc(C3CCN(C(=O)Cn4nc(C(F)F)cc4C(F)F)CC3)n2)=NO1 (racemic) [I-57], the Eff. % [1] is reported as 90%, the “logp [a]” value [2] is reported as 2.74[a] and the Eff. % [3] is reported as 94%.
With CC(=NO)c1ccccc1C1CC(c2csc(C3CCN(C(=O)Cn4nc(C(F)(F)F)cc4C)CC3)n2)=NO1 (stereo not drawn) [I-40, 1-[4-(4-{5-[2-(N-Hydroxyethanimidoyl)phenyl]-4,5-dihydro-1,2-phenyloxazol-3-yl}-1,3-thiazol-2-yl)piperidin-1-yl]-2-[5-methyl-3-(trifluoromethyl)-1H-pyrazol-1-yl]ethanone] the Eff. % [1] was 90%, the “logp [a]” value [2] was 2.92[a] and the Eff. % [3] was 100%.
In the case of N#CCOc1cccc(Cl)c1C1CC(c2csc(C3CCN(C(=O)Cn4nc(C(F)F)cc4C(F)F)CC3)n2)=NO1 (stereo not drawn) [I-75], the Eff. % [1] is reported as 100%, the “logp [a]” value [2] is reported as 3.19[a], and the “logp [b]” value [2] is reported as 3.11[b].
For CCS(=O)(=O)Oc1ccc(C2CC(c3csc(C4CCN(C(=O)Cn5nc(C(F)(F)F)cc5C)CC4)n3)=NO2)cc1 (stereo not drawn) [I-97], the “logp [a]” value [2] was 3.14[a],, the “logp [b]” value [2] was 3.05[b] and the Eff. % [3] was 95%.
In the case of Cc1cc(C(F)(F)F)nn1CC(=O)N1CCC(c2nc(C3=NOC(c4ccc(OS(=O)(=O)C5CC5)cc4)C3)cs2)CC1 (stereo not drawn) [I-98], the “logp [a]” value [2] is reported as 3.22[a],, the “logp [b]” value [2] is reported as 3.13[b] and the Eff. % [3] is reported as 95%.
With CCS(=O)(=O)Oc1cccc(C2CC(c3csc(C4CCN(C(=O)Cn5nc(C(F)(F)F)cc5C)CC4)n3)=NO2)c1 (stereo not drawn) [I-99] the “logp [a]” value [2] was 3.18[a],, the “logp [b]” value [2] was 3.08[b] and the Eff. % [3] was 100%.
With COCCSCc1ccccc1C1CC(c2csc(C3CCN(C(=O)Cn4nc(C(F)F)cc4C(F)F)CC3)n2)=NO1 (stereo not drawn) [I-100] the “logp [a]” value [2] was 3.5[a] and the Eff. % [3] was 100%.
For Cc1cc(C(F)(F)F)nn1CC(=O)N1CCC(c2nc(C3=NOC(c4cccc(OS(=O)(=O)C5CC5)c4)C3)cs2)CC1 (stereo not drawn) [I-101], the “logp [a]” value [2] was 3.25[a],, the “logp [b]” value [2] was 3.12[b] and the Eff. % [3] was 100%.
With C=CC(=O)Oc1ccccc1C1CC(c2csc(C3CCN(C(=O)Cn4nc(C(F)(F)F)cc4C)CC3)n2)=NO1 (stereo not drawn) [I-104] the “logp [a]” value [2] was 3.38[a],, the “logp [b]” value [2] was 3.3[b] and the Eff. % [3] was 97%.
With O=C(Cn1nc(C(F)F)cc1C(F)F)N1CCC(c2nc(C3=NOC(c4ccccc4OC(=O)C4(Cl)CC4)C3)cs2)CC1 (stereo not drawn) [I-107] the “logp [a]” value [2] was 3.66[a],, the “logp [b]” value [2] was 3.57[b] and the Eff. % [3] was 100%.
With Cc1cc(C(F)(F)F)nn1CC(=O)N1CCC(c2nc(C3=NOC(c4ccccc4NC=O)C3)cs2)CC1 (stereo not drawn) [I-109] the “logp [a]” value [2] was 2.49[a],, the “logp [b]” value [2] was 2.39[b] and the Eff. % [3] was 100%.
For N#CCOc1cccc(C2CC(c3csc(C4CCN(C(=O)Cn5nc(C(F)F)cc5C(F)F)CC4)n3)=NO2)c1 (stereo not drawn) [I-110], the “logp [a]” value [2] was 2.95[a],, the “logp [b]” value [2] was 2.88[b] and the Eff. % [3] was 100%.
In the case of Cc1cc(C(F)(F)F)nn1CC(=O)N1CCC(c2nc(C3=NOC(c4cccc(F)c4OCC#N)C3)cs2)CC1 (stereo not drawn) [I-111], the “logp [a]” value [2] is reported as 3.22[a],, the “logp [b]” value [2] is reported as 3.13[b] and the Eff. % [3] is reported as 98%.
With O=C(O)c1ccccc1C1CC(c2csc(C3CCN(C(=O)Cn4nc(C(F)F)cc4C(F)F)CC3)n2)=NO1 (stereo not drawn) [I-134] the “logp [a]” value [2] was 2.63[a] and the Eff. % [3] was 93%.
For CCNC(=O)Oc1ccccc1C1CC(c2csc(C3CCN(C(=O)Cn4nc(C(F)F)cc4C(F)F)CC3)n2)=NO1 (stereo not drawn) [I-136], the “logp [a]” value [2] was 2.84[a],, the “logp [b]” value [2] was 2.81[b] and the Eff. % [3] was 93%.
For O=C(Cn1nc(C(F)F)cc1C(F)F)N1CCC(c2nc(C3=NOC(c4cccc(OCC#Cc5cccc6ccccc56)c4)C3)cs2)CC1 (stereo not drawn) [I-137], the “logp [a]” value [2] was 4.6[a],, the “logp [b]” value [2] was 4.71[b] and the Eff. % [3] was 100%.
With C=CCOCc1ccccc1C1CC(c2csc(C3CCN(C(=O)Cn4nc(C(F)F)cc4C(F)F)CC3)n2)=NO1 (stereo not drawn) [I-139] the “logp [a]” value [2] was 4.11[a] and the Eff. % [3] was 80%.
